The record followed here is patent US11440906B2, “Biguanide derivatives and their rearrangement products for use in the treatment of cancer” (CENTRE NATIONAL DE LA RECHERCHE SCIENTIFIQUE, priority 2017, dated 2022).

Where two headings read alike, the source gives them in different places.

In assay [1] the test system is A375 resistant melanoma cells. Briefly: In vivo murine cancer model, A375 resistant xenograft. The arrangement: species or system BALB/c nu/nu (nude) mice. The note with it: 0.7 mg/mouse/day intraperitoneal. Here is the method:
(§1) Animal experiments were carried out in accordance with the Declaration of Helsinki and were approved by a local ethical committee CIEPAL (Comité Institutionnel d'Ethique Pour l'Animal de Laboratoire-Azur). Female immune-deficient BALB/c nu/nu (nude) mice were obtained at 5 weeks of age from Envigo Laboratory (Gannat, France). Nude mice were inoculated subcutaneously with A375 sensitive or resistant melanoma cells (1.0×10^6 cells/mouse). After tumor apparition (±5 days), animals received intraperitoneal injection of Labrafil (Control), PLX4032 (0.7 mg/mouse/day) or CRO15 (0.7 mg/mouse/day) dissolved in Labrafil. The growth tumor curves were determined by measuring the tumor volume using the equation V=(L*W2)/2 (V=tumor volume, W=tumor width, L=tumor length). At the end of the experiment, mice were euthanized by cervical dislocation and tumors were taken for western blot and immunofluorescence experiments (LC3, Cleaved Caspase 3). TUNEL assay was performed using the In Situ Cell Death Detection Kit (Roche, Meylan, France). The results are shown in FIGS. 3A and 3B (A375 sensitive melanoma cells), and 4B and 4C (A375 resistant melanoma cells).
In Vivo Murine Cancer Model Animal experiments were carried out in accordance with the Declaration of Helsinki and were approved by a local ethical committee CIEPAL (Comite Institutionnel d'Ethique Pour l'Animal de Laboratoire-Azur). Female immune-deficient BALB/c nu/nu (nude) mice were obtained at 5 weeks of age from Envigo Laboratory (Gannat, France). Nude mice were inoculated subcutaneously with A375 resistant melanoma cells (1.0×10^6 cells/mouse). After tumor apparition (+5 days), animals received intraperitoneal injection of Labrafil (Control), PLX4032 (0.7 mg/mouse/day) or MTF319 (0.7 mg/mouse/day) dissolved in Labrafil. The growth tumor curves were determined by measuring the tumor volume using the equation V=(L*W2)/2 (V=tumor volume, W=tumor width, L=tumor length). At the end of the experiment, mice were euthanized by cervical dislocation.

In assay [2] the test system is WM9 cells. Briefly: Resistance development in WM9 cells after 8 weeks of drug exposure. The format is cell-based, human. The conditions noted are these: 8 weeks increasing concentrations, then 10 μM 48 hrs; FIG. 7B. An excerpt: Different melanoma cell lines were purchased from the American Tissue Culture Collection: A375 and WM9 cells are mutated on B-Raf, CDKN2A and PTEN proteins; SKmel28 cells are mutated on B-Raf and P53 proteins; 1205Lu cells are mutated on B-Raf and PTEN proteins; G-361 cells are mutated on B-Raf and CDKN2A proteins; C8161 cells are mutated on B-Raf and K-Ras proteins; WM3912 cells are mutated on B-Raf and CDKN2A proteins; MeWo cells are mutated on P53 and CDKN2A proteins; WM3918 presents no mutations on characteristic proteins.
For trypan blue staining, […] of cells (melanoma and normal human cells) were aseptically transferred to a 1.5 mL clear Eppendorf tube and incubated for 3 min at room temperature with an equal volume of 0.4% trypan blue solution. Viable cells were counted and the results are expressed as the percentage of the value of control cells. All the experiments are performed 3 times in triplicate.
To study weither melanoma cells WM9 would develop resistance to CRO15, these cells were kept in culture during 8 weeks in presence of increasing concentrations of either, DMSO (control), PLX4032, CRO15 or MTF255. The starting concentration was 0.2 μM.
Along with non-treated WM9S (naive cells), drug-treated WM9S were then stimulated with 10 μM of each drug during 48 hrs. Viable cells were counted using the trypan blue dye exclusion method. […]

The test system of assay [3] is A375 sensitive melanoma cells. Kind of assay: In vivo murine cancer model, A375 sensitive xenograft. Further details: species or system BALB/c nu/nu (nude) mice. The conditions noted are these: 0.7 mg/mouse/day intraperitoneal. Here is the method: as §1
For assay [4], the system named is A375 Sensitive cells. Briefly: Viability test, trypan blue exclusion, A375 Sensitive cells. The assay is classed as cell-based, human. The conditions noted are these: for viability at 5 µM / viability at 10 µM: viable cells as percentage of DMSO control. The method in brief:
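A375 (B-Raf, CDKN2A, PTEN mutant) cells were exposed to compounds at 5.0 or 10 μM for 24 or 48 hr; CRO15 also at 0.5–50 μM for 48 hr or 5 μM for 2–48 hr; DMSO control. Viable cells were counted by trypan blue exclusion, as % of control. Three experiments in triplicate.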

Assay [5] relates to murine melanoma BP cells. Kind of assay: Murine melanoma BP cells allografted into C57BL6 mice. The assay is classed as in vivo, C57BL6/J mice. The conditions noted are these: BP cells allograft, immunocompetent C57BL/6, 0.7 mg/mouse/day intraperitoneal; FIG. 7A. Here is the method: In Vivo Murine Cancer Model Animal experiments were carried out in accordance with the Declaration of Helsinki and were approved by a local ethical committee CIEPAL (Comite Institutionnel d'Ethique Pour l'Animal de Laboratoire-Azur). Female C57BL6/J mice were obtained at 5 weeks of age from Envigo Laboratory (Gannat, France). Mice were inoculated subcutaneously with BP melanoma cells (1×10^6 cells/mouse). After tumor apparition (+5 days), animals received intraperitoneal injection of Labrafil (vehicle) or CRO15 (0.7 mg/mouse/day). The growth tumor curves were determined by measuring the tumor volume using the equation V=(L*W2)/2, (V=tumor volume, W=tumor width, L=tumor length). At the end of the experiment, mice were euthanized by cervical dislocation.

One may read the IC50 as the midpoint of a concentration-inhibition curve. In the case of `Nc1nc(Nc2ccccc2SSc2ccccc2Nc2nc(N)nc(C(Cl)(Cl)Cl)n2)nc(C(Cl)(Cl)Cl)n1` [CRO15, N2,N2′-(disulfanediylbis(2,1-phenylene))bis(6-(trichloromethyl)-1,3,5-triazine-2,4-diamine)], the tumor volume entry in assay [1] (FIG. 4B, 6A) is “reduces”; in assay [3] (FIG. 3A) it was “reduces”. Further, the tumor weight result in assay [1] (FIG. 4C, 6B) is reported as “reduces”; in assay [3] (FIG. 3B) it was “reduces”. Also, the “cell viability of WM9 after 8 weeks of treatment and stimulation with the drug” value in assay [2] is on record as “still able to induce cell death”. For the same compound, the “decrease of the viability compared with PLX4032” value in assay [4] (5 μM each, 48 hr, FIG. 1A) was “more important with CRO15 than with PLX4032”. Besides, in assay [4] (5 μM, 2 hr to 48 hr, FIG. 1A), the “cell viability of A375 S cells, kinetic” value is on record as “induces a decrease of the viability of melanoma cells”. The “cell viability, A375 sensitive melanoma cells” value in assay [4] (5 μM, 48 hr, FIG. 4A) is given as “induces a decrease of the cell viability”. Besides, in assay [4] (0.5-50 μM, 48 hr, FIG. 1B), the “dose-response on melanoma cells viability” value was “dose-response relationship”. In addition, the viability at 5 µM came to 36% in assay [4] (Homo sapiens, A-375, 5 μM, 24 h, read-out: Viab A375 5 μM/ 24 h) and 27% in assay [4] (Homo sapiens, A-375, 5 μM, 48 h, read-out: Viab A375 5 μM/ 48 h). In addition, the viability at 10 µM in assay [4] (Homo sapiens, A-375, 24 h, read-out: Viab A375 10 μM/ 24 h) amounted to 23%; in assay [4] (Homo sapiens, A-375, 48 h, read-out: Viab A375 10 μM/ 48 h) it was 2.6%. Besides, the IC50 in assay [4] (Homo sapiens, A-375, A375 Sensitive cells, 48 hr, read-out: IC50 of CRO15) was determined as 3.75 µM. The “tumor growth (tumor volume)” value in assay [5] was “no tumor growth”.
